These results are taken from ChEMBL document CHEMBL1157309, “Sensitivity of cardiac background inward rectifying K+ outward current (IK1) to the alkaloids lepadiformines A, B, and C” (J Nat Prod, 2006).

Experiment [1] concerns Pelophylax lessonae. The experiment can be described thus: Inhibition of Kir channel in frog sino-atrial myocytes assessed as blockade of barium and caesium-sensitive inward rectifying potassium outward current by whole cell patch clamp method. Format: cell-based. The following applies: Cardiac atrium.
Experiment [2] deals with Pelophylax lessonae. The experiment can be described thus: Inhibition of Kir channel in frog sino-atrial myocytes assessed as blockade of barium and caesium-sensitive inward rectifying potassium outward current at 1.6 uM by whole cell patch clamp method. In kind it is cell-based. The conditions noted are these: Cardiac atrium.
A short description of experiment [3]: Inhibition of Kir channel in frog sino-atrial myocytes assessed as half-maximal response for blockade of barium and caesium-sensitive inward rectifying potassium outward current by whole cell patch clamp method. In kind it is cell-based, Pelophylax lessonae, Cardiac atrium.
For experiment [4], the system named is Pelophylax lessonae. The experiment can be described thus: Inhibition of Kir channel in frog sino-atrial myocytes assessed as blockade of barium and caesium-sensitive inward rectifying potassium outward current potential at 3.3 uM by whole cell patch clamp method. In kind it is cell-based. The following applies: Cardiac atrium.
For experiment [5], the system named is Pelophylax lessonae. The experiment can be described thus: Inhibition of Kir channel in frog sino-atrial myocytes assessed as blockade of barium and caesium-sensitive inward rectifying potassium outward current potential at 2.5 uM by whole cell patch clamp method. In kind it is cell-based. The conditions noted are these: Cardiac atrium.
Experiment [6] relates to Pelophylax lessonae. Nature of the experiment: Inhibition of Kir channel in frog sino-atrial myocytes assessed as blockade of barium and caesium-sensitive inward rectifying potassium outward current potential at 4.1 uM by whole cell patch clamp method. The conditions noted are these: Cardiac atrium. Format: cell-based.

Each structure is given as a SMILES string. Where a name gives a salt, the structure may show the parent alone. Calls of active or inactive are those of the source. The rule behind the calls is not given here.

For `CCCCCC[C@@H]1CC[C@@H]2CCCC[C@]23CC[C@@H](CO)N13` [LEPADIFORMINE A HYDROCHLORIDE], the Activity entry in experiment [1] was “Dose-dependent effect”. Besides, the result in experiment [2] was Active. In addition, the Kd in experiment [3] was found to be 1420 nM.

On to `CCCC[C@@H]1CC[C@@H]2CCCC[C@]23CCCN13`, for which, in experiment [4], the outcome was inactive. Besides, in experiment [5], the inhibition was determined as 8.4%.

On to `CCCC[C@@H]1CC[C@@H]2CCCC[C@]23CC[C@@H](CO)N13` [LEPADIFORMINE B HYDROCHLORIDE], for which the inhibition in experiment [5] was determined as 54%. Also, in experiment [3], the Kd turned out to be 1560 nM. In addition, in experiment [6], the result was Active.
